{"source": "patent US20260317304A1", "about": "“TEAD INHIBITORS AND METHODS OF USE” (Sporos BioDiscovery, Inc., priority 2022, published 2026)", "key": {"TEAD isoforms 1-4": {"tested_on": "TEAD isoforms 1-4", "experiment": "TEAD thermal shift assay (TSA), outcome in words", "format": "binding, human", "from_the_text": "Thermal shift assay (TSA) is a biophysical method to evaluate stability of proteins with change in temperature. The assay measures thermal denaturation temperature in varying conditions such as different drug concentration. For this example, fluorogenic dye was used that bind to unfolded proteins. SYPRO Orange binds non-specifically to hydrophobic surfaces, and water strongly quenches its fluorescence. When the protein unfolds, the exposed hydrophobic surfaces bind the dye, resulting in an increase in fluorescence by excluding water. Detergent micelles also bind the dye and increase background noise dramatically. Binding of small molecules to proteins leads to a stabilization against to thermal denaturation with the degree of thermal stabilization proportional to the strength of binding.\nThe study described in this example investigated the change in melting temperature (ΔTm) of TEAD isoforms 1-4 when treated with TEAD inhibitors.\nTris-HCL was dissolved in 5 mL of Cell culture grade water and allowed to dissolve completely. The pH was adjusted to 8 using NaOH. Additional assay buffer components were added in the order listed above. The buffer was mixed slowly.\nAssay buffer was prepared according to the procedures outlined above and dispensed into test wells. Spyro orange was added to a concentration of 5× in the assay buffer, followed by test compound stock solution which was added to a concentration of 10 μM or 30 μM in the assay buffer.\nThe melt cycle was performed in Bio-RAD PCR instrument from 20-95° C. with ramp rate of 1° C./min."}, "[1]": {"tested_on": "NCI-H226 lung tumor model", "experiment": "Mouse xenograft NCI-H226 tumors", "format": "in vivo, NOD SCID mice", "from_the_text": "This study evaluated the in vivo anti-tumor efficacy of test compounds in NOD SCID mice for treatment of NCI-H226 lung tumor model.\n• Species: Mus Musculus • Strain: NOD SCID • Age: 6-8 weeks • Sex: female • Body weight: 18-22 g • Number of animals inoculated with tumor: 69 mice • Number of animals enrolled in the treatment: 40 mice • Number of unenrolled animals: 29 mice • Animal supplier: Beijing Vital River Biotechnology Experimental Animal Co. Ltd Certification number: 20221110Abzz0619000681\nThe NCI-H226 tumor cells were maintained in vitro in RPMI 1640 medium supplemented with 10% Fetal bovine serum and 1% Antibiotic-Antimycotic at 37° C. in an atmosphere of 5% CO2 in air. The tumor cells were routinely subcultured twice weekly by trypsin-EDTA. The cells growing in an exponential growth phase were harvested and counted for tumor inoculation.\nEach mouse was inoculated subcutaneously at the right flank with NCI-H226 tumor cells (10×10^6+50% matrigel/0.2 mL) for tumor development. Animals were marked with earrings with unique 6 significant figure number for identification. The treatments were started when the average tumor volume reached an average size of 154 mm^3.\nThe major endpoint was to determine if the tumor growth could be delayed or mice could be cured. Tumor volume was measured twice a week in two dimensions using a caliper, and the volume was expressed in mm^3 using the formula: V=0.5 a×b^2 where a and b are the long and short diameters of the tumor, respectively. The tumor size was then used for calculations of T/C value. The TGI value (in percent) or the T/C value (in percent) is an indication of antitumor effectiveness; T and C are the mean tumor volumes or tumor weights of the treated and control groups, respectively, on a given day.\nTGI was calculated for each group using the formula: TGI (%)=[1−(Ti−T0)/(Vi−V0)]×100; Ti is the average tumor volume of a treatment group on a given day, T0 is the average tumor volume of the treatment group on the day of treatment start, Vi is the average tumor volume of the vehicle control group on the same day with T1, and V0 is the average tumor volume of the vehicle group on the day of treatment start.\nRelative T/C (%)=TRTV/CRTV×100 (RTV (%)=Vt/V0×100, Vt is the average tumor volume on a given day, V0 is the average tumor volume on the first day of treatment. TRTV is the RTV of a treatment group, and the CRTV is the RTV of the vehicle control group.)\nTumor weight was measured at the study termination. The Tweight/Cweight value (in percent) was calculated according to the formula: Tweight/Cweight (%)=TWtreatment/TWvehicle×100, where T and C are the mean tumor weights of the treatment and control groups respectively\nSummary statistics, including mean and the standard error of the mean (SEM), were provided for the tumor volume of each group at each time point.\nStatistical analysis of difference in tumor volume among the groups was conducted on the data obtained at the end of the study.\nOne-tailed T test was performed to compare tumor volumes between two groups. All data were analyzed using GraphPad Prism 6.0. p<0.05 is considered to be statistically significant.\nThe antitumor effectiveness of the study was analyzed on PG-D28 when vehicle group reached 472 mm^3."}}}
{"smiles": "Cn1cnc(-c2cc([C@@]3(C)CCNC3=O)ccc2Nc2ccc(C(F)(F)F)cc2)c1", "note": "(single isomer, unassigned) [Compound 5, 3-methyl-3-(3-(1-methyl-1H-imidazol-4-yl)-4-((4-(trifluoromethyl)phenyl)amino)phenyl)pyrrolidin-2-one]", "values": [{"measurement": "thermal shift / TEAD binding (in words)", "setting": "TEAD isoforms 1-4", "value": "strong TEAD1 and TEAD4 binding"}, {"measurement": "Tumor size (mean ± SEM)", "setting": "[1]; day 0, 5 mg/kg, PO BID", "value": "154 ± 13", "unit": "mm^3"}, {"measurement": "Tumor size (mean ± SEM)", "setting": "[1]; day 0, 15 mg/kg, PO BID", "value": "154 ± 15", "unit": "mm^3"}, {"measurement": "Tumor size (mean ± SEM)", "setting": "[1]; day 0, 15 mg/kg, PO QD", "value": "154 ± 15", "unit": "mm^3"}, {"measurement": "Tumor size (mean ± SEM)", "setting": "[1]; day 4, 5 mg/kg, PO BID", "value": "140 ± 10", "unit": "mm^3"}, {"measurement": "Tumor size (mean ± SEM)", "setting": "[1]; day 4, 15 mg/kg, PO BID", "value": "127 ± 14", "unit": "mm^3"}, {"measurement": "Tumor size (mean ± SEM)", "setting": "[1]; day 4, 15 mg/kg, PO QD", "value": "153 ± 11", "unit": "mm^3"}, {"measurement": "Tumor size (mean ± SEM)", "setting": "[1]; day 7, 5 mg/kg, PO BID", "value": "129 ± 5", "unit": "mm^3"}, {"measurement": "Tumor size (mean ± SEM)", "setting": "[1]; day 7, 15 mg/kg, PO BID", "value": "115 ± 12", "unit": "mm^3"}, {"measurement": "Tumor size (mean ± SEM)", "setting": "[1]; day 7, 15 mg/kg, PO QD", "value": "149 ± 11", "unit": "mm^3"}, {"measurement": "Tumor size (mean ± SEM)", "setting": "[1]; day 10, 5 mg/kg, PO BID", "value": "124 ± 6", "unit": "mm^3"}, {"measurement": "Tumor size (mean ± SEM)", "setting": "[1]; day 10, 15 mg/kg, PO BID", "value": "110 ± 10", "unit": "mm^3"}, {"measurement": "Tumor size (mean ± SEM)", "setting": "[1]; day 10, 15 mg/kg, PO QD", "value": "148 ± 12", "unit": "mm^3"}, {"measurement": "Tumor size (mean ± SEM)", "setting": "[1]; day 13, 5 mg/kg, PO BID", "value": "82 ± 8", "unit": "mm^3"}, {"measurement": "Tumor size (mean ± SEM)", "setting": "[1]; day 13, 15 mg/kg, PO BID", "value": "84 ± 8", "unit": "mm^3"}, {"measurement": "Tumor size (mean ± SEM)", "setting": "[1]; day 13, 15 mg/kg, PO QD", "value": "116 ± 26", "unit": "mm^3"}, {"measurement": "Tumor size (mean ± SEM)", "setting": "[1]; day 17, 5 mg/kg, PO BID", "value": "77 ± 7", "unit": "mm^3"}, {"measurement": "Tumor size (mean ± SEM)", "setting": "[1]; day 17, 15 mg/kg, PO BID", "value": "62 ± 6", "unit": "mm^3"}, {"measurement": "Tumor size (mean ± SEM)", "setting": "[1]; day 17, 15 mg/kg, PO QD", "value": "94 ± 15", "unit": "mm^3"}, {"measurement": "Tumor size (mean ± SEM)", "setting": "[1]; day 20, 5 mg/kg, PO BID", "value": "73 ± 6", "unit": "mm^3"}, {"measurement": "Tumor size (mean ± SEM)", "setting": "[1]; day 20, 15 mg/kg, PO BID", "value": "63 ± 7", "unit": "mm^3"}, {"measurement": "Tumor size (mean ± SEM)", "setting": "[1]; day 20, 15 mg/kg, PO QD", "value": "95 ± 16", "unit": "mm^3"}, {"measurement": "Tumor size (mean ± SEM)", "setting": "[1]; day 24, 5 mg/kg, PO BID", "value": "55 ± 4", "unit": "mm^3"}, {"measurement": "Tumor size (mean ± SEM)", "setting": "[1]; day 24, 15 mg/kg, PO BID", "value": "49 ± 4", "unit": "mm^3"}, {"measurement": "Tumor size (mean ± SEM)", "setting": "[1]; day 24, 15 mg/kg, PO QD", "value": "85 ± 8", "unit": "mm^3"}, {"measurement": "T/C", "setting": "[1]; day 28, 5 mg/kg, PO BID", "value": 11.2, "unit": "%"}, {"measurement": "TGI", "setting": "[1]; day 28, 5 mg/kg, PO BID", "value": 131.3, "unit": "%"}, {"measurement": "Tumor size (mean ± SEM)", "setting": "[1]; day 28, 5 mg/kg, PO BID", "value": "53 ± 5", "unit": "mm^3"}, {"measurement": "Tumor Volume (mean ± SEM)", "setting": "[1]; day 28, 5 mg/kg, PO BID (Table 20)", "value": "53 ± 5", "unit": "mm^3"}, {"measurement": "T/C", "setting": "[1]; day 28, 15 mg/kg, PO BID", "value": 9.0, "unit": "%"}, {"measurement": "TGI", "setting": "[1]; day 28, 15 mg/kg, PO BID", "value": 134.2, "unit": "%"}, {"measurement": "Tumor size (mean ± SEM)", "setting": "[1]; day 28, 15 mg/kg, PO BID", "value": "43 ± 6", "unit": "mm^3"}, {"measurement": "Tumor Volume (mean ± SEM)", "setting": "[1]; day 28, 15 mg/kg, PO BID (Table 20)", "value": "43 ± 6", "unit": "mm^3"}, {"measurement": "T/C", "setting": "[1]; day 28, 15 mg/kg, PO QD", "value": 17.0, "unit": "%"}, {"measurement": "TGI", "setting": "[1]; day 28, 15 mg/kg, PO QD", "value": 122.3, "unit": "%"}, {"measurement": "Tumor size (mean ± SEM)", "setting": "[1]; day 28, 15 mg/kg, PO QD", "value": "82 ± 12", "unit": "mm^3"}, {"measurement": "Tumor Volume (mean ± SEM)", "setting": "[1]; day 28, 15 mg/kg, PO QD (Table 20)", "value": "82 ± 12", "unit": "mm^3"}]}
